{
  "source": "paper PMC5700124",
  "about": "(Scientific Reports, 2017)",
  "key": {"α1 and α2 adrenoceptors": {"tested_on": "α1 and α2 adrenoceptors", "design": "method as in PMID 16153828", "conditions": "cited from earlier work"}, "α2 adrenoceptor": {"molecular_target": "α2 adrenoceptor", "conditions": "anterior forebrain; autoradiography; pH 7.7, 22 °C, mg^2+ 0; blocking of NS phentolamine 10 μM; ref Boyajian et al.[41]; cited from earlier work"}, "α2 adrenoceptors [1]": {"tested_on": "α2 adrenoceptors", "design": "method as in Jakobsen and colleagues[14]", "conditions": "porcine brain, ref Jakobsen and colleagues[14], cited from earlier work"}, "[2]": {"tested_on": "[^11C]mirtazepin binding in porcine brain", "design": "method as in Smith et al.[34]", "conditions": "ref Smith et al.[34], cited from earlier work"}, "plasma proteins [3]": {"tested_on": "plasma proteins", "test": "Plasma ultrafiltration, ex vivo (plasma free fraction fP of [^11C]yohimbine)", "format": "in vitro ADME, rat", "conditions": "0.3 mg/kg yohimbine i.v., P < 0.05", "description": "In the ex vivo experiment, a separate group of six female Sprague Dawley rats were subjected to plasma ultrafiltration and treated identically to animals that underwent PET acquisition. […] We centrifuged the blood samples in heparinized tubes for 20 min at 4 °C to generate plasma and stored the samples at −50 °C.\nTo measure fP , we used the Centrifree centrifugal filter device (Millipore, Bedford, MA) with a molecular cutoff of 30 kDa for all samples. […] On the day of fP determination, the plasma samples were thawed in room temperature in 20 min. […] After 10 minutes incubation at room temperature, aliquots of 50 μl of this solution were used to measure the total activity (unfiltered plasma). […] The activity of filtered plasma was determined in triplicates. All samples were counted in a gamma device (Packard Cobra Gamma Counter, Model D5003). […] The correction factor, r, was determined as the ratio of the activity in the phosphate buffer before filtration, Abuffer(total), to the filtered buffer, Abuffer(ultrafiltrate),38 r=Abuffer(total)/Abuffer(ultrafiltrate), from which the plasma-free fraction, fP , was calculated as the ratio of the activity of the filtered plasma, Aplasma(ultrafiltrate), to the unfiltered plasma, Aplama(total), multiplied by the correction factor, r, for recovery,39 fP=rAplasma(ultrafiltrate)/Aplasma(total),"}, "α2 adrenoceptor subtypes": {"tested_on": "α2 adrenoceptor subtypes", "design": "method as in PMID 7908054", "conditions": "cited from earlier work"}, "α2 adrenoceptors [4]": {"tested_on": "α2 adrenoceptors", "test": "PET of [^11C]yohimbine binding in rat brain at baseline and at challenge with unlabeled yohimbine", "conditions": "for Binding potentials, BPND, percent-wise change (%) / Volumes of Distribution, VT, percent-wise change (%): COLD vs BASE, individual rats 1-5"}, "[5]": {"design": "method as in Jakobsen et al.[14]", "conditions": "pigs, ref Jakobsen et al.[14], cited from earlier work"}, "[6]": {"conditions": "rats; cited from earlier work"}, "plasma proteins [7]": {"tested_on": "plasma proteins", "conditions": "in the circulation; cited from earlier work"}, "plasma proteins [8]": {"tested_on": "plasma proteins", "design": "method as in PMID 7836362", "conditions": "cited from earlier work"}, "[9]": {"tested_on": "α7 nicotinic acetylcholine receptors", "design": "method as in PMID 26455500", "conditions": "1.24 mg/kg; cited from earlier work"}, "[10]": {"tested_on": "translocator protein (TSPO)", "design": "method as in Hilmer et al.[39]", "conditions": "0.1 ng/kg i.v.; ref Hilmer et al.[39]; cited from earlier work"}, "[11]": {"conditions": "CEREB cerebellum, unlabeled yohimbine 0.3 mg/kg i.v."}, "[12]": {"conditions": "CP caudate putamen, unlabeled yohimbine 0.3 mg/kg i.v."}, "[13]": {"conditions": "HYP hypothalamus, unlabeled yohimbine 0.3 mg/kg i.v."}, "[14]": {"conditions": "MC motor cortex, unlabeled yohimbine 0.3 mg/kg i.v."}, "[15]": {"conditions": "OLF olfactory bulb, unlabeled yohimbine 0.3 mg/kg i.v."}, "[16]": {"conditions": "PFC prefrontal cortex, unlabeled yohimbine 0.3 mg/kg i.v."}, "[17]": {"conditions": "SSC somatosensory cortex, unlabeled yohimbine 0.3 mg/kg i.v."}, "[18]": {"conditions": "THAL thalamus, unlabeled yohimbine 0.3 mg/kg i.v."}, "[19]": {"conditions": "unlabeled yohimbine 0.3 mg/kg vs baseline"}},
  "note": "Entries after “also recorded” stand apart in the source; their conditions may differ. Read-outs that look alike come from different tables or passages of the source.",
  "data": [
    {"molecule": "Cc1ccc(N(CC2=NCCN2)c2cccc(O)c2)cc1", "note": "[phentolamine]", "values": [
      {"measurement": "selectivity between α1 and α2 adrenoceptors", "setting": "α1 and α2 adrenoceptors", "value": "higher selectivity to α1 adrenoceptor"}
    ]},
    {"molecule": "COC(=O)[C@H]1[C@H]2C[C@H]3c4[nH]c5ccccc5c4CCN3C[C@H]2CC[C@@H]1O", "note": "[[^3H] -rauwolscine, [^3H]rauwolscine]", "values": [
      {"measurement": "Kd", "setting": "α2 adrenoceptor", "value": 790, "unit": "pM"}
    ]},
    {"molecule": "COC(=O)[C@@H]1[C@H]2C[C@H]3c4[nH]c5ccccc5c4CCN3C[C@@H]2CC[C@@H]1O", "note": "[yohimbine]", "values": [
      {"measurement": "reduction of VT of [^11C]yohimbine", "setting": "α2 adrenoceptors [1]; low dose 0.07 mg/kg", "value": "approximately 30%"},
      {"measurement": "reduction of VT of [^11C]yohimbine", "setting": "α2 adrenoceptors [1]; pre-treatment 1.7 mg/kg", "value": "failed to decrease VT further"},
      {"measurement": "reduction of [^11C]mirtazepin binding", "setting": "[2]; 0.3 mg/kg", "value": 23, "unit": "%"},
      {"measurement": "reduction of [^11C]mirtazepin binding", "setting": "[2]; 3.0 mg/kg", "value": 43, "unit": "%"},
      {"measurement": "increase of plasma free fraction fP of [^11C]yohimbine compared to baseline", "setting": "plasma proteins [3]", "value": 30, "unit": "%"},
      {"measurement": "affinity to α2 adrenoceptor subtypes", "setting": "α2 adrenoceptor subtypes", "value": "does not distinguish between the subtypes"},
      {"measurement": "Binding potentials, BPND, percent-wise change (%)", "setting": "α2 adrenoceptors [4]; [11]", "value": "(−54) %; also recorded: (−63) %; also recorded: (−82) %; also recorded: (−56) %; also recorded: (−51) %"},
      {"measurement": "Volumes of Distribution, VT, percent-wise change (%)", "setting": "α2 adrenoceptors [4]; [11]", "value": "(19) %; also recorded: (5) %; also recorded: (0) %; also recorded: (16) %; also recorded: (27) %"},
      {"measurement": "Binding potentials, BPND, percent-wise change (%)", "setting": "α2 adrenoceptors [4]; [12]", "value": "(−64) %; also recorded: (−59) %; also recorded: (−55) %; also recorded: (−47) %"},
      {"measurement": "Volumes of Distribution, VT, percent-wise change (%)", "setting": "α2 adrenoceptors [4]; [12]", "value": "(−6) %; also recorded: (5) %; also recorded: (25) %; also recorded: (3) %; also recorded: (34) %"},
      {"measurement": "Binding potentials, BPND, percent-wise change (%)", "setting": "α2 adrenoceptors [4]; HIP hippocampus, unlabeled yohimbine 0.3 mg/kg i.v.", "value": "(−59) %; also recorded: (−58) %; also recorded: (−50) %; also recorded: (−54) %; also recorded: (−46) %"},
      {"measurement": "Volumes of Distribution, VT, percent-wise change (%)", "setting": "α2 adrenoceptors [4]; HIPP hippocampus, unlabeled yohimbine 0.3 mg/kg i.v.", "value": "(4) %; also recorded: (9) %; also recorded: (36) %; also recorded: (14) %; also recorded: (35) %"},
      {"measurement": "Binding potentials, BPND, percent-wise change (%)", "setting": "α2 adrenoceptors [4]; [13]", "value": "(−58) %; also recorded: (−61) %; also recorded: (−65) %; also recorded: (−53) %; also recorded: (−49) %"},
      {"measurement": "Volumes of Distribution, VT, percent-wise change (%)", "setting": "α2 adrenoceptors [4]; [13]", "value": "(7) %; also recorded: (5) %; also recorded: (13) %; also recorded: (18) %; also recorded: (33) %"},
      {"measurement": "Binding potentials, BPND, percent-wise change (%)", "setting": "α2 adrenoceptors [4]; [14]", "value": "(−63) %; also recorded: (−65) %; also recorded: (−50) %; also recorded: (−61) %; also recorded: (−42) %"},
      {"measurement": "Volumes of Distribution, VT, percent-wise change (%)", "setting": "α2 adrenoceptors [4]; [14]", "value": "(1) %; also recorded: (−6) %; also recorded: (39) %; also recorded: (−1) %; also recorded: (44) %"},
      {"measurement": "Binding potentials, BPND, percent-wise change (%)", "setting": "α2 adrenoceptors [4]; [15]", "value": "(−71) %; also recorded: (−60) %; also recorded: (−78) %; also recorded: (−53) %; also recorded: (−58) %"},
      {"measurement": "Volumes of Distribution, VT, percent-wise change (%)", "setting": "α2 adrenoceptors [4]; [15]", "value": "(−15) %; also recorded: (10) %; also recorded: (−6) %; also recorded: (22) %; also recorded: (23) %"},
      {"measurement": "Binding potentials, BPND, percent-wise change (%)", "setting": "α2 adrenoceptors [4]; [16]", "value": "(−63) %; also recorded: (−60) %; also recorded: (−39) %; also recorded: (−61) %; also recorded: (−44) %"},
      {"measurement": "Volumes of Distribution, VT, percent-wise change (%)", "setting": "α2 adrenoceptors [4]; [16]", "value": "(−1) %; also recorded: (4) %; also recorded: (53) %; also recorded: (0) %; also recorded: (40) %"},
      {"measurement": "Binding potentials, BPND, percent-wise change (%)", "setting": "α2 adrenoceptors [4]; [17]", "value": "(−63) %; also recorded: (−62) %; also recorded: (−45) %; also recorded: (−59) %; also recorded: (−41) %"},
      {"measurement": "Volumes of Distribution, VT, percent-wise change (%)", "setting": "α2 adrenoceptors [4]; [17]", "value": "(−2) %; also recorded: (0) %; also recorded: (47) %; also recorded: (3) %; also recorded: (45) %"},
      {"measurement": "Binding potentials, BPND, percent-wise change (%)", "setting": "α2 adrenoceptors [4]; [18]", "value": "(−58) %; also recorded: (−57) %; also recorded: (−52) %; also recorded: (−44) %"},
      {"measurement": "Volumes of Distribution, VT, percent-wise change (%)", "setting": "α2 adrenoceptors [4]; [18]", "value": "(7) %; also recorded: (22) %; also recorded: (15) %; also recorded: (37) %"},
      {"measurement": "degree of saturation, s (available receptors blocked)", "setting": "α2 adrenoceptors [4]; average, 0.3 mg/kg yohimbine challenge, Extended Inhibition Plot", "value": 56, "unit": "%"},
      {"measurement": "decline of BPND of [^11C]yohimbine in the challenge condition compared to baseline", "setting": "α2 adrenoceptors [4]; on average, unlabeled yohimbine 0.3 mg/kg i.v.", "value": "50–60%"},
      {"measurement": "effect of challenge on K1 of [^11C]yohimbine", "setting": "α2 adrenoceptors [4]; [19]", "value": "markedly elevated"},
      {"measurement": "effect of challenge on k2′ of [^11C]yohimbine", "setting": "α2 adrenoceptors [4]; [19]", "value": "higher"},
      {"measurement": "global lowering of CBF", "setting": "[5]; higher dose 1.6 mg/kg", "value": 30, "unit": "%"},
      {"measurement": "effect on CBF", "setting": "[5]; low dose 0.07 mg/kg", "value": "unaffected"},
      {"measurement": "effect on blood pressure and heart rate", "setting": "[6]", "value": "raise blood pressure and heart rate"},
      {"measurement": "fraction bound to plasma proteins", "setting": "plasma proteins [7]", "value": "More than 80%"}
    ]},
    {"molecule": "C=CC1=C(C)/C(=C/c2[nH]c(Cc3[nH]c(/C=C4\\NC(=O)C(C)=C4C=C)c(C)c3CCC(=O)O)c(CCC(=O)O)c2C)NC1=O", "note": "[bilirubin]", "values": [
      {"measurement": "rate of relaxation from plasma proteins", "setting": "plasma proteins [8]", "value": 0.6, "unit": "s⁻¹"}
    ]},
    {"molecule": "O=S1(=O)c2cc(N3CCN4CCC3CC4)ccc2-c2cccc(F)c21", "note": "[ASEM]", "values": [
      {"measurement": "increase of fP of [^18F] DBT-10", "setting": "[9]", "value": "two-fold increase"}
    ]},
    {"molecule": "lipopolysaccharide [LPS]", "values": [
      {"measurement": "increase of [^11C] PBR28 VT", "setting": "[10]", "value": 39, "unit": "%"}
    ]}
  ]
}
